Data reported in patent US20210113522A1, “COUMARIN DERIVATIVE AS ANTI-ASTHMATIC AGENT, PHARMACEUTICAL COMPOSITION THEREOF, ITS PREPARATION AND USE” (I-NOVA MEDICINSKA ISTRAZIVANJA D.O.O., priority 2017, published 2021).

Experiments:
[1] = MTT cytotoxicity / cell survival in murine fibroblast line L929; assay type: cell-based; conditions: mouse; L929, 48 h; read-out: CC50 (cytotoxic concentration for 50% cells)
Protocol: (§1) Cytotoxicity of compound 1 was determined through the study of cell growth and viability by the methods of determination of maximal non-toxic concentration (MNC) and concentration required for cell viability by 50% (CC50). […] Cytotoxic concentration at 50% (CC50) was defined as the concentration of the test substance 1 at which 50% of the cells die as a result of toxicity of the test substance.
(§2) Evaluation of cytotoxicity was an important part of the assessment of anti-asthmatic activity of compound 1 since its beneficial therapeutic effect at asthma and other inflammatory respiratory diseases should be selective with little or no effects on the metabolism of host cells. The study of cytotoxicity of compound 1 was performed on two types of cell lines of murine fibroblasts L20B and L929 from European collection of cell cultures (ECACC).
(§3) Cell viability was estimated by a modification of the 3-(4,5-dimethylthiazol-2-yl)-2,5-diphenyltetrazolium bromide (MTT) assay which is one of the most frequently used methods for measuring cell proliferation and cytotoxicity; see literature reference 12: • 12) T. Mosmann: Rapid colorimetric assay for cellular growth and survival: Application to proliferation and cytotoxicity assays, J. Immunol. Methods 65 (1983) 55-63.
(§4) Cell viability was reported as the percentage (%) of viable cells in the wells treated with different concentrations of the test compound 1, compared to the control cells untreated with the substance. Maximal non-toxic concentration (MNC) and cytotoxic concentration for 50% of cells (CC50) were calculated from the constructed “dose-cellular survival” curve.
(§5) Cytotoxicity of compound 1 was determined through the study of cell growth and viability by the methods of determination of maximal non-toxic concentration (MNC) and concentration required for cell viability by 50% (CC50).
(§6) The compound 1 (Mw=410.02) under study were first dissolved in DMSO (Sigma-Aldrich) to a concentration of 0.1 mol/L (0.1 M) as a stockade later diluted in cell growth medium Dulbecco's Modified Eagle Medium (DMEM; Sigma-Aldrich) with 2% heat inactivated fetal bovine serum.
(§7) The study of cytotoxicity of compound 1 was performed on two types of murine fibroblasts cell lines: L20B and L929 from European collection of cell cultures (ECACC). Cells were routinely maintained as adherent cell cultures in DMEM medium and containing 10% Fetal bovine serum (FBS; Gibco), 2 mM L-glutamine (Sigma-Aldrich), 100 U/mL penicillin G sodium (Sigma-Aldrich), 100 μg/mL streptomycin sulphate (Sigma-Aldrich) at 37° C. in a humidified air incubator containing 5% carbon dioxide (CO2). Cultivation of the cells was continued with direct monitoring every two or three days using a phase contrast microscope. The cells are harvested in 1× trypsin/EDTA solution (Sigma-Aldrich). Cells were passages 1:3-1:5 at a density around 5-6·10^4 cells/mL, while the passage was re-suspended repeatedly.
(§8) Methods of determining cell growth, cell viability, maximal non-toxic concentration (MNC) and concentrations, required cell viability by 50% (CC50): Cell viability was estimated by a modification of the MTT [3-(4,5-dimethylthiazol-2-yl)-2,5-diphenyltetrazolium bromide] assay; see literature reference 12. The MTT reduction assay is one of the most frequently used methods for measuring cell proliferation and cytotoxicity. The intensity of colour (measured spectrophotometrically) of the MTT formazan produced by living, metabolically active cells by measuring the activity of succinate dehydrogenase, mostly located in mitochondria was proportional to the number of live cells present. MTT was a yellow water-soluble tetrazolium dye that was reduced by live, but not dead cells to a purple formazan product that was insoluble in aqueous solutions.
(§9) Each cell line was plated at an appropriate density (7.5·10^3 cells/well for L20B cell culture and 4·10^4 cells/well for L929 cell culture) in 96-well plates (Costar Corning; USA) for 24 h. […]

L929 = assay: as above; assay type: cell-based
Protocol: as §1, §2, §3, §4, §5, §6, §7, §8, §9

[2] = tested on: mucus production in the airway; assay: OVA model: airway mucus production (PAS staining); assay type: in vivo, Balb/c mice; conditions: vs mice that received no treatment; 1 2 mg/kg therapeutically or preventively, beclomethasone 1 mg/kg
Protocol: Enhanced airway mucus production results from airway inflammation and is hallmark of allergic asthma. Thus, mechanisms that suppress immune responses in the lung could result in suppression of mucus production. Mucus production was measured 2 days after i.n. challenge in experimental mice that were treated with compound 1 or beclomethasone (as standard) and lung sections were stained with periodic acid-Schiff stain (PAS). Mucus production in the lung was quantitated immunohistologically by evaluation of mucus-positive epithelia. […]
Mucus production was measured 2 days after i.n. challenge in experimental mice that were treated with compound 1 or beclomethasone (as standard) and lung sections were stained with PAS. Mucus production in the lung was quantitated immunohistologically by evaluation of mucus-positive epithelia.

O=c1oc2cc(O)cc(O)c2c(O)c1-c1coc2c1c(=O)oc1cc(O)cc(O)c12 [Compound 1, 7,9-dihydroxy-3-(4,5,7-trihydroxy-2-oxo-2H-chromene-3-yl)-4H-furo[3,2-c]chromen-4-one]
CC50 at 48 h [1]: 10 mM
Cell survival, cell culture L929 (L929; 0.0001 mg/mL of 1, 48 h): 100.6%
Cell survival, cell culture L929 (L929; 0.001 mg/mL of 1, 48 h): 98.8%
Cell survival, cell culture L929 (L929; 0.01 mg/mL of 1, 48 h): 95.3%
Cell survival, cell culture L929 (L929; 0.05 mg/mL of 1, 48 h): 87.1%
Cell survival, cell culture L929 (L929; 0.1 mg/mL of 1, 48 h): 89.3%
Cell survival, cell culture L929 (L929; 0.5 mg/mL of 1, 48 h): 83.2%
Cell survival, cell culture L929 (L929; 1 mg/mL of 1, 48 h): 76.1%
Cell survival, cell culture L929 (L929; 5 mg/mL of 1, 48 h): 64.9%
Cell survival, cell culture L929 (L929; 10 mg/mL of 1, 48 h): 50.5%
Cytotoxicity against L929 relative to L20B according to MNC values (L929; 48 h): 10 ×
Cytotoxicity against L929 versus L20B according to CC50 values (L929; 48 h): the same cytotoxicity
Cytotoxicity (overall, in words) (L929; L929, 48 h): low cytotoxicity
Typical cytopathology characterizing the toxic effect (microscopic morphology of monolayers) (L929; L929, 48 h, 0.0001-10 mg/mL): not registered
Mucin production in the airway (PAS) [2]: significant reduction
